Measurements published in patent publication US9611251B2, “Substituted piperidine compounds and their use as orexin receptor modulators” (Janssen Pharmaceutica NV, priority 2013, dated 2017).
pKi: −log10 of the molar value.

How the values were obtained:
[1] = biological target: human orexin 2 receptor (Homo sapiens (Human), UniProt O43614); assay: Human orexin 2 receptor radioligand binding ([3H]-EMPA); settings: averages of 2-20 runs, read-out: hOX2 Ki
In short: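 Competition binding using homogenized HEK293 cells stably expressing human orexin 2 receptor, [3H]-EMPA at 2 nM final and ≤0.1% DMSO; nonspecific binding set with 10 μM almorexant. Filter-bound radioactivity counted by scintillation; one-site competition IC50 converted to Ki using pre-determined Kd, compounds run in triplicate.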

[2] = biological target: rat orexin 1 receptor (Rattus norvegicus, UniProt P56718); assay: Rat orexin 1 receptor radioligand binding; settings: rat orexin 1 receptor radioligand binding; averages of 2-20 runs; read-out: rOX1 Ki
In short: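 Cell-suspension competition binding used 4 nM final tritiated thiazolyl-pyrrolidinyl-methanone radioligand in PBS, ≤0.1% DMSO, with 10 µM almorexant defining nonspecific binding. Filter-bound radioactivity was counted in triplicate. IC50 came from one-site competition fits and was converted to Ki using the predetermined Kd.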

[3] = biological target: human orexin 1 receptor (Homo sapiens, UniProt O43613); assay: Human orexin 1 receptor radioligand binding; settings: human orexin 1 receptor radioligand binding; averages of 2-20 runs; read-out: hOX1 Ki

human orexin 2 receptor, sequence (O43614 whole entry): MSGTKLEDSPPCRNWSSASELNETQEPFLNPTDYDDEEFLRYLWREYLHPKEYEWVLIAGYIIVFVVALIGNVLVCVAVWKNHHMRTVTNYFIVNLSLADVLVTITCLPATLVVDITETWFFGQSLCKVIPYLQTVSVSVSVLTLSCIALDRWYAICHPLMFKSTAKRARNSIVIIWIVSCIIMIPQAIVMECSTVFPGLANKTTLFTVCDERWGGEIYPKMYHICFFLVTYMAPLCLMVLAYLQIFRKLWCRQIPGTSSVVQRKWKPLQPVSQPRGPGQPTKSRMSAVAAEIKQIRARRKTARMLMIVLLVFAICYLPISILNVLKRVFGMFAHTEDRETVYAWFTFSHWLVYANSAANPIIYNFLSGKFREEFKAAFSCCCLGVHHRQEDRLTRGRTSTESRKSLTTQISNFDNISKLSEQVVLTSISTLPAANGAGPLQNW

| Structure (SMILES) | pKi [1] | pKi [2] | pKi [3] |
| --- | --- | --- | --- |
| Cc1cccc(C(=O)N2CCC[C@@H](Oc3cnc(C(F)(F)F)cn3)[C@@H]2C)c1-c1ncccn1 [Example 171, (3-methyl-2-(pyrimidin-2-yl)phenyl)((2S,3R)-2-methyl-3-((5-(trifluoromethyl)pyrazin-2-yl)oxy)piperidin-1-yl)methanone] | 5.96 | 7.47 | 7.54 |
| C[C@H]1[C@H](Oc2ncc(C(F)(F)F)cn2)CCCN1C(=O)c1cc(F)ccc1-c1ncco1 [Example 175, (5-fluoro-2-(oxazol-2-yl)phenyl)((2S,3R)-2-methyl-3-((5-(trifluoromethyl)pyrimidin-2-yl)oxy)piperidin-1-yl)methanone] | 5.36 | 6.91 | 6.73 |
| Cc1cnc(-n2nccn2)c(C(=O)N2CCC[C@@H](Oc3cnc(C(F)(F)F)cn3)[C@@H]2C)c1 [Example 177, (5-methyl-2-(2H-1,2,3-triazol-2-yl)pyridin-3-yl)((2S,3R)-2-methyl-3-((5-(trifluoromethyl)pyrazin-2-yl)oxy)piperidin-1-yl)methanone] | < 5.00 | 6.62 | 6.78 |
| C[C@H]1[C@H](Oc2cnc(C(F)(F)F)cn2)CCCN1C(=O)c1cc(F)ccc1-c1ncco1 [Example 179, (5-fluoro-2-(oxazol-2-yl)phenyl)((2S,3R)-2-methyl-3-((5-(trifluoromethyl)pyrazin-2-yl)oxy)piperidin-1-yl)methanone] | 5.72 | 7.00 | 7.17 |
| Cc1cnc(-c2ncccn2)c(C(=O)N2CCC[C@@H](Oc3ccc(C(F)(F)F)cn3)[C@@H]2C)c1 [Example 211, (5-methyl-2-(pyrimidin-2-yl)pyridin-3-yl)((2S,3R)-2-methyl-3-((5-(trifluoromethyl)pyridin-2-yl)oxy)piperidin-1-yl)methanone] | < 5.00 | 6.92 | 6.91 |
| C[C@H]1[C@H](Oc2ccc(C(F)(F)F)cn2)CCCN1C(=O)c1c(F)cccc1-c1ncccn1 [Example 212, (2-fluoro-6-(pyrimidin-2-yl)phenyl)((2S,3R)-2-methyl-3-((5-(trifluoromethyl)pyridin-2-yl)oxy)piperidin-1-yl)methanone] | 6.04 | 7.35 | 6.88 |
| Cc1ccc(-c2ncccn2)c(C(=O)N2CCC[C@@H](Oc3ccc(C(F)(F)F)cn3)[C@@H]2C)n1 [Example 213, ((2S,3R)-2-methyl-3-((5-(trifluoromethyl)pyridin-2-yl)oxy)piperidin-1-yl)(6-methyl-3-(pyrimidin-2-yl)pyridin-2-yl)methanone] | 6.66 | 7.64 | 7.17 |
| Cc1cnc(-n2nccn2)c(C(=O)N2CCC[C@@H](Oc3ccc(Cl)cn3)[C@@H]2C)c1 [Example 214, ((2S,3R)-3-((5-chloropyridin-2-yl)oxy)-2-methylpiperidin-1-yl)(5-methyl-2-(2H-1,2,3-triazol-2-yl)pyridin-3-yl)methanone] | 5.27 | 7.42 | 7.11 |
| Cc1ccc(-n2nccn2)c(C(=O)N2CCC[C@@H](Oc3ccc(Cl)cn3)[C@@H]2C)n1 [Example 215, ((2S,3R)-3-((5-chloropyridin-2-yl)oxy)-2-methylpiperidin-1-yl)(6-methyl-3-(2H-1,2,3-triazol-2-yl)pyridin-2-yl)methanone] | 6.43 | 7.92 | 7.46 |
| Cc1cnc(C(=O)N2CCC[C@@H](Oc3ccc(Cl)cn3)[C@@H]2C)c(-c2ncccn2)c1 [Example 216, ((2S,3R)-3-((5-chloropyridin-2-yl)oxy)-2-methylpiperidin-1-yl)(5-methyl-3-(pyrimidin-2-yl)pyridin-2-yl)methanone] | 5.09 | 7.28 | 7.05 |
| Cc1cnc(-c2ncccn2)c(C(=O)N2CCC[C@@H](Oc3ccc(Cl)cn3)[C@@H]2C)c1 [Example 217, ((2S,3R)-3-((5-chloropyridin-2-yl)oxy)-2-methylpiperidin-1-yl)(5-methyl-2-(pyrimidin-2-yl)pyridin-3-yl)methanone] | 5.05 | 6.75 | 6.81 |
| C[C@H]1[C@H](Oc2ccc(Cl)cn2)CCCN1C(=O)c1ncccc1-c1ncccn1 [Example 218, ((2S,3R)-3-((5-chloropyridin-2-yl)oxy)-2-methylpiperidin-1-yl)(3-(pyrimidin-2-yl)pyridin-2-yl)methanone] | 6.31 | 7.59 | 7.54 |
| CCOc1ccc(C)nc1C(=O)N1CCC[C@@H](Oc2ccc(C(F)(F)F)cn2)[C@@H]1C [Example 219, (3-ethoxy-6-methylpyridin-2-yl)((2S,3R)-2-methyl-3-((5-(trifluoromethyl)pyridin-2-yl)oxy)piperidin-1-yl)methanone] | 5.89 | 7.29 | 7.26 |
| Cc1cccc(C(=O)N2CCC[C@@H](Oc3ncc(C(F)(F)F)cc3F)[C@@H]2C)c1-c1ncccn1 [Example 220, ((2S,3R)-3-((3-fluoro-5-(trifluoromethyl)pyridin-2-yl)oxy)-2-methylpiperidin-1-yl)(3-methyl-2-(pyrimidin-2-yl)phenyl)methanone] | 6.41 | 7.64 | 7.60 |
| C[C@H]1[C@H](Oc2ncc(C(F)(F)F)cc2F)CCCN1C(=O)c1cc(F)ccc1-c1ncccn1 [Example 221, (5-fluoro-2-(pyrimidin-2-yl)phenyl)((2S,3R)-3-((3-fluoro-5-(trifluoromethyl)pyridin-2-yl)oxy)-2-methylpiperidin-1-yl)methanone] | 6.27 | 7.49 | 7.36 |
| C[C@H]1[C@H](Oc2ncc(C(F)(F)F)cc2F)CCCN1C(=O)c1ccc(F)cc1-c1ncccn1 [Example 222, (4-fluoro-2-(pyrimidin-2-yl)phenyl)((2S,3R)-3-((3-fluoro-5-(trifluoromethyl)pyridin-2-yl)oxy)-2-methylpiperidin-1-yl)methanone] | 5.89 | 7.26 | 7.04 |
| Cc1ccc(-c2ncccn2)c(C(=O)N2CCC[C@@H](Oc3ncc(C(F)(F)F)cc3F)[C@@H]2C)n1 [Example 223, ((2S,3R)-3-((3-fluoro-5-(trifluoromethyl)pyridin-2-yl)oxy)-2-methylpiperidin-1-yl)(6-methyl-3-(pyrimidin-2-yl)pyridin-2-yl)methanone] | 6.43 | 7.46 | 7.35 |
| C[C@H]1[C@H](Oc2ncc(C(F)(F)F)cc2F)CCCN1C(=O)c1ccccc1-n1nccn1 [Example 224, (2-(2H-1,2,3-triazol-2-yl)phenyl)((2S,3R)-3-((3-fluoro-5-(trifluoromethyl)pyridin-2-yl)oxy)-2-methylpiperidin-1-yl)methanone] | 6.24 | 7.48 | 7.33 |
